Test results reported in patent publication US20200278355A1, “CONJUGATED PROTEINS AND USES THEREOF” (THE SCRIPPS RESEARCH INSTITUTE, priority 2017, published 2020).

Target: T1, NR0B1 (Homo sapiens, UniProt P51843)
T1 construct: H460 cells or H460 cells expressing luciferase in a 10 cm plate were incubated with indicated compounds; endogenous in cells; host or cells: H460 (NSCLC, KEAP1-mutant)
T1 sequence (P51843 1-470): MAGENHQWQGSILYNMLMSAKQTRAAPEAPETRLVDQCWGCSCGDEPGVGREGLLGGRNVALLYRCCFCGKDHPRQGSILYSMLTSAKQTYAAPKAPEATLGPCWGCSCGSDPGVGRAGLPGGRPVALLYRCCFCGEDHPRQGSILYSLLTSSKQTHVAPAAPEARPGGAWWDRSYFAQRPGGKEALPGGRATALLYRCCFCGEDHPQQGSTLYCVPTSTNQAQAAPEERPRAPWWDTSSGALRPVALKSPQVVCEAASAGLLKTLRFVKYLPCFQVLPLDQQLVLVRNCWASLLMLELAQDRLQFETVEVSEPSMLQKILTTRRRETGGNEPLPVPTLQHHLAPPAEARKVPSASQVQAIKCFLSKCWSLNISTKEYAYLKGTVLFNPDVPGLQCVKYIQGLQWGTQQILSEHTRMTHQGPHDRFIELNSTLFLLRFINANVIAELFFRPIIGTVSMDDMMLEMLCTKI
Assay: isoTOP-ABPP of compound-treated H460 cells: NR0B1
Assay type: cell-based
Conditions: for receptor occupancy at 40 µM: NCI-H460, 40 μM for 3 h, read-out: target occupancy of C274 of NR0B1
Procedure: For analysis of NR0B1 ligands or control compound reactivity, H460 cells or H460 cells expressing luciferase in a 10 cm plate were incubated with indicated compounds in serum/dye-free RPMI for 3 hours at 37° C. Cells were washed once ice-cold PBS and lysed in 1% Triton X-100 dissolved in PBS with protease inhibitors (Sigma) by sonication. Samples were clarified by centrifugation for 10 min at 16,000×g. Lysate was adjusted to 1.5 mg ml^−1 in 500 μL.
Samples were labeled for 1 h at ambient temperature with 100 μM iodoacetamide alkyne (1, IA-alkyne, 5 μL of 10 mM stock in DMSO). Samples were conjugated by copper-catalyzed azide-alkyne cycloaddition (CuAAC) to isotopically labeled, TEV-cleavable tags (TEV-tags). Heavy CuAAC reaction mixtures was added to the DMSO-treated or shGFP control samples and light CuAAC reaction mixture was added to compound-treated or shNRF2 samples. The CuAAC reaction mixture consisted of TEV tags (light or heavy, 10 μL of 5 mM stocks in DMSO, final concentration=100 μM), 1 mM tris(2-carboxyethyl)phosphine hydrochloride (TCEP; fresh 50× stock in water, final concentration=1 mM), ligand (17× stock in DMSO:t-butanol 1:4, final concentration=100 μM) and 1 mM CuSO4 (50× stock in water, final concentration=1 mM). The samples were allowed to react for 1 h at which point the samples were centrifuged (16,000×g, 5 min, 4° C.). The resulting pellets were sonicated in ice-cold methanol (500 μL) and the resuspended light- and heavy-labeled samples were then combined pairwise and centrifuged (16,000×g, 5 min, 4° C.). The pellets were solubilized in PBS containing 1.2% SDS (1 mL) with sonication and heating (5 min, 95° C.) and any insoluble material was removed by an additional centrifugation step at ambient temperature (14,000×g, 1 min).
For each sample, 100 μL of streptavidin-agarose beads slurry (Fisher) was washed in 10 mL PBS and then resuspended in 6 mL PBS (final concentration 0.2% SDS in PBS). The SDS-solubilized proteins were added to the suspension of streptavidin-agarose beads and the bead mixture was rotated for 3 h at ambient temperature. After incubation, the beads were pelleted by centrifugation (1,400×g, 3 min) and were washed (2×10 mL PBS and 2×10 mL water).
The beads were transferred to eppendorftubes with 1 mL PBS, centrifuged (1,400×g, 3 min), and resuspended in PBS containing 6 M urea (500 μL). To this was added 10 mM DTT (25 μL of a 200 mM stock in water) and the beads were incubated at 65° C. for 15 mins. 20 mM iodoacetamide (25 μL of a 400 mM stock in water) was then added and allowed to react at 37° C. for 30 mins with shaking. The bead mixture was diluted with 900 μL PBS, pelleted by centrifugation (1,400×g, 3 min), and resuspended in PBS containing 2 M urea (200 μL). To this was added 1 mM CaCl2 (2 μL of a 200 mM stock in water) and trypsin (2 μg, Promega, sequencing grade) and the digestion was allowed to proceed overnight at 37° C. with shaking. The beads were separated from the digest with Micro Bio-Spin columns (Bio-Rad) by centrifugation (1,000×g, 1 min), washed (2×1 mL PBS and 2×1 mL water) and then transferred to fresh eppendorf tubes with 1 mL water. The washed beads were washed once further in 140 μL TEV buffer (50 mM Tris, pH 8, 0.5 mM EDTA, 1 mM DTT) and then resuspended in 140 μL TEV buffer. 5 μL TEV protease (80 μM) was added and the reactions were rotated overnight at 29° C. The TEV digest was separated from the beads with Micro Bio-Spin columns by centrifugation (1,400×g, 3 min) and the beads were washed once with water (100 μL). The samples were then acidified to a final concentration of 5% (v/v) formic acid and stored at −80° C. prior to analysis.
Samples processed for multidimensional liquid chromatography tandem mass spectrometry (MudPIT) were pressure loaded onto a 250 μm (inner diameter) fused silica capillary columns packed with C18 resin (Aqua 5 μm, Phenomenex). […]

Row | engagement of C274 of NR0B1 (NSCLC cells, 40 μM, 3 h) | cysteines in NR0B1 engaged among several quantified cysteines (40 μM, 3 h) | receptor occupancy at 40 µM (NSCLC cells) [%] | relative potency of C274 engagement (NSCLC cells) | engagement of C274 (NSCLC cells, 5 μM, 3 h) [%] | Compound | BPK-29-competed isoTOP-ABPP analysis (NR0B1 C274, 40 μM)
1 | did not engage C274 |  |  |  |  | O=C(c1ccc(N2CCOCC2)cc1)N1CCC(CN(C(=O)CCl)c2cncnc2)CC1 [BPK-9, 2-chloro-N-((1-(4-morpholinobenzoyl)piperidin-4-yl)methyl)-N-(pyrimidin-5-yl)acetamide] | 
2 |  | the only cysteine in NR0B1 engaged | ~70 |  |  | O=C(CCl)N(Cc1cccc(Cl)c1F)c1ccc(Cl)nc1 [BPK-26, 2-chloro-N-(3-chloro-2-fluorobenzyl)-N-(6-chloropyridin-3-yl)acetamide] | 
3 |  | the only cysteine in NR0B1 engaged | ~70 | superior potency compared to BPK-26 | > 50 | O=C(c1ccc(N2CCOCC2)cc1)N1CCCC(N(Cc2ccccc2)C(=O)CCl)CC1 (centres unmarked) [BPK-29, N-benzyl-2-chloro-N-(1-(4-morpholinobenzoyl)azepan-4-yl)acetamide] | Yes (Competed defined as showing R value ≥ 3.0 at 40 μM of test compound)
